The values below come from ChEMBL document CHEMBL5303304, “EUbOPEN Chemogenomics Library - IncuCyte” (2023).

What all share (assay type): toxicity, cell-based
Data set [1] deals with HEK-293T. In words: Incucyte cell viability with HEK293T. Conditions: human, 10 µM, compound concentration 10 uM.
The subject of data set [2] is Fibroblast. As to the kind of experiment: Incucyte cell viability with human fibroblast. Conditions: 10 µM, compound concentration 10 uM.
Data set [3] deals with U2OS. In words: Incucyte cell viability with U2OS. The settings on record: human, 10 µM, compound concentration 10 uM.
Note: unitless GR value; below 1 slowed growth and below 0 cell loss.

Consider `O=C(CNC(=O)c1ccc(-c2ccccc2)cc1)NC1CCCc2ccccc21` (configuration not stated), for which the “Growth Rate” value in data set [1] (0 h, replicate number 2) was -0.65; in data set [1] (6 h, replicate number 1), 0.23; in data set [1] (6 h, replicate number 2) it was 0.73; in data set [1] (12 h, replicate number 1) it was -0.08; in data set [1] (12 h, replicate number 2) it was 0.41; in data set [1] (18 h, replicate number 1), 0.26. Also, the “Growth Rate” value in data set [1] (18 h, replicate number 2) came out at 0.38; in data set [1] (24 h, replicate number 1) it was 0.39; in data set [1] (24 h, replicate number 2), 0.46; in data set [2] (6 h, replicate number 2) it was 0.27; in data set [2] (12 h, replicate number 2) it was 0.26; in data set [2] (18 h, replicate number 2), 0.42. For the same compound, the “Growth Rate” value in data set [2] (24 h, replicate number 2) is recorded as 0.7; in data set [3] (0 h, replicate number 1), 0.77; in data set [3] (6 h, replicate number 1), 0.38; in data set [3] (12 h, replicate number 1), 0.67; in data set [3] (12 h, replicate number 2), 0.9; in data set [3] (18 h, replicate number 1) it was 0.43. For the same compound, the “Growth Rate” value is 0.55 in data set [3] (24 h, replicate number 1) and 0.93 in data set [3] (24 h, replicate number 2).
As to `CCC(=O)Nc1cc(Nc2cc(NC3CC3)n3ncc(C#N)c3n2)ccc1C`, the “Growth Rate” value in data set [1] (0 h, replicate number 2) is recorded as -0.72; in data set [1] (6 h, replicate number 1), 0.87; in data set [1] (6 h, replicate number 2), 0.94; in data set [1] (12 h, replicate number 1) it was 0.79; in data set [1] (12 h, replicate number 2), 0.59; in data set [1] (18 h, replicate number 1) it was 0.79. Besides, the “Growth Rate” value came to 0.83 in data set [1] (18 h, replicate number 2); 0.81 in data set [1] (24 h, replicate number 1); 0.83 in data set [1] (24 h, replicate number 2); 0.76 in data set [2] (6 h, replicate number 1); 0.41 in data set [2] (6 h, replicate number 2); 0.46 in data set [2] (12 h, replicate number 1). Moreover, the “Growth Rate” value is listed as 0.67 in data set [2] (12 h, replicate number 2); 0.33 in data set [2] (18 h, replicate number 1); 0.61 in data set [2] (18 h, replicate number 2); 0.48 in data set [2] (24 h, replicate number 1); 0.85 in data set [2] (24 h, replicate number 2); -1 in data set [3] (0 h, replicate number 1). In addition, the “Growth Rate” value in data set [3] (6 h, replicate number 1) stood at 0.24; in data set [3] (6 h, replicate number 2) it was 0.61; in data set [3] (12 h, replicate number 1), 0.12; in data set [3] (12 h, replicate number 2), 0.52; in data set [3] (18 h, replicate number 1) it was 0.39; in data set [3] (18 h, replicate number 2), 0.54. Also, the “Growth Rate” value in data set [3] (24 h, replicate number 1) was found to be 0.44; in data set [3] (24 h, replicate number 2), 0.53.
`O=C(O)CCCc1cc2cc(Cl)ccc2n1S(=O)(=O)c1ccc2ncsc2c1` [LANIFIBRANOR]: the “Growth Rate” value in data set [1] (0 h, replicate number 1) is 0.87; in data set [1] (0 h, replicate number 2), -0.8; in data set [1] (6 h, replicate number 1), 0.78; in data set [1] (6 h, replicate number 2), 0.49; in data set [1] (12 h, replicate number 2), 0.73; in data set [1] (18 h, replicate number 2) it was 0.59. In addition, the “Growth Rate” value in data set [1] (24 h, replicate number 2) turned out to be 0.63; in data set [2] (0 h, replicate number 2), 0.65; in data set [2] (6 h, replicate number 1), 0.58; in data set [2] (6 h, replicate number 2), 0.28; in data set [2] (12 h, replicate number 2), 0.76; in data set [3] (12 h, replicate number 1), 0.94.
Consider `C[C@H](NC(=O)c1cc(Cl)ccc1Oc1ccc(F)cc1)c1ccc(C(=O)O)cc1`, for which the “Growth Rate” value in data set [1] (0 h, replicate number 1) is reported as -0.19; in data set [1] (0 h, replicate number 2), 0.1; in data set [2] (0 h, replicate number 2), -0.45; in data set [2] (6 h, replicate number 1), 0.59; in data set [2] (6 h, replicate number 2) it was -0.71; in data set [2] (12 h, replicate number 2), 0.98. Further, the “Growth Rate” value in data set [2] (18 h, replicate number 1) amounted to 0.85; in data set [2] (18 h, replicate number 2), 0.92; in data set [2] (24 h, replicate number 1) it was 0.86; in data set [3] (6 h, replicate number 2), 0.86; in data set [3] (12 h, replicate number 1) it was 0.94; in data set [3] (12 h, replicate number 2), 0.8. Besides, the “Growth Rate” value in data set [3] (24 h, replicate number 2) was determined as 0.99.
As for `CC(=O)N(CCN(C)C)c1ccc(N/C(=C2\C(=O)Nc3cc(Cl)ccc32)c2ccccc2)cn1`, the “Growth Rate” value was -0.78 in data set [1] (6 h, replicate number 1); -0.92 in data set [1] (6 h, replicate number 2); -0.58 in data set [1] (12 h, replicate number 1); -0.71 in data set [1] (12 h, replicate number 2); -0.45 in data set [1] (18 h, replicate number 1); -0.55 in data set [1] (18 h, replicate number 2). The “Growth Rate” value in data set [1] (24 h, replicate number 1) is given as -0.37; in data set [1] (24 h, replicate number 2) it was -0.42; in data set [2] (0 h, replicate number 2) it was -1; in data set [2] (6 h, replicate number 1) it was -0.62; in data set [2] (6 h, replicate number 2) it was -0.8; in data set [2] (12 h, replicate number 1), -0.65. Also, the “Growth Rate” value in data set [2] (12 h, replicate number 2) is given as -0.8; in data set [2] (18 h, replicate number 1), -0.63; in data set [2] (18 h, replicate number 2), -0.76; in data set [2] (24 h, replicate number 1), -0.58; in data set [2] (24 h, replicate number 2) it was -0.72; in data set [3] (6 h, replicate number 1) it was -0.35. Besides, the “Growth Rate” value in data set [3] (6 h, replicate number 2) is on record as 0.34; in data set [3] (12 h, replicate number 1), 0.03; in data set [3] (12 h, replicate number 2), 0.23; in data set [3] (18 h, replicate number 1), 0.02; in data set [3] (18 h, replicate number 2), 0.1; in data set [3] (24 h, replicate number 1) it was -0.14. The “Growth Rate” value in data set [3] (24 h, replicate number 2) is given as -0.13.
With `Cc1cc(CN)cc(C)c1-c1ncn(C)c1-c1cncn1C.Cl`, the “Growth Rate” value in data set [1] (0 h, replicate number 1) is given as -0.38; in data set [1] (0 h, replicate number 2), 0.26; in data set [1] (18 h, replicate number 1) it was 0.98; in data set [2] (0 h, replicate number 1) it was -1; in data set [2] (6 h, replicate number 1), 0.96; in data set [2] (6 h, replicate number 2) it was -0.33. Besides, the “Growth Rate” value in data set [2] (12 h, replicate number 2) is 0.59; in data set [2] (18 h, replicate number 2), 0.77; in data set [2] (24 h, replicate number 2), 0.86; in data set [3] (12 h, replicate number 2), 0.69; in data set [3] (18 h, replicate number 2) it was 0.99.
In the case of `CCC(=O)N[C@H]1CC[C@@H](C(=O)N(C)c2ccc(-c3nc4ccccc4o3)cc2)C1` [BI 99179], the “Growth Rate” value turned out to be 0.1 in data set [1] (6 h, replicate number 1); 0.11 in data set [1] (6 h, replicate number 2); 0.1 in data set [1] (12 h, replicate number 1); 0.26 in data set [1] (12 h, replicate number 2); 0.31 in data set [1] (18 h, replicate number 1); 0.51 in data set [1] (18 h, replicate number 2). The “Growth Rate” value in data set [1] (24 h, replicate number 1) is recorded as 0.51; in data set [1] (24 h, replicate number 2) it was 0.69; in data set [2] (0 h, replicate number 2), -0.49; in data set [2] (6 h, replicate number 1), 0.53; in data set [2] (6 h, replicate number 2), 0.58; in data set [2] (12 h, replicate number 1), 0.5. The “Growth Rate” value in data set [2] (18 h, replicate number 1) came out at 0.66; in data set [2] (18 h, replicate number 2) it was 0.98; in data set [2] (24 h, replicate number 1), 0.79; in data set [3] (0 h, replicate number 1), 0.2; in data set [3] (6 h, replicate number 1), 0.68; in data set [3] (12 h, replicate number 1), 0.89. The “Growth Rate” value came out at 0.65 in data set [3] (12 h, replicate number 2); 0.98 in data set [3] (18 h, replicate number 1); 0.87 in data set [3] (18 h, replicate number 2); 0.86 in data set [3] (24 h, replicate number 1); 0.96 in data set [3] (24 h, replicate number 2).
Take `O=C(O)c1cc(F)c2nc(N3[C@@H]4CC[C@H]3C[C@@H](OCc3c(-c5ccccc5OC(F)(F)F)noc3C3CC3)C4)sc2c1` [TROPIFEXOR]: the “Growth Rate” value amounted to 0.6 in data set [1] (0 h, replicate number 2); 0.33 in data set [2] (0 h, replicate number 2); 0.98 in data set [2] (6 h, replicate number 2); 0.31 in data set [2] (12 h, replicate number 1); 0.63 in data set [2] (18 h, replicate number 1); 0.97 in data set [2] (24 h, replicate number 1). The “Growth Rate” value in data set [3] (6 h, replicate number 1) is 0.63; in data set [3] (12 h, replicate number 1) it was 0.99.
`C[S+](C)[O-]` [DIMETHYL SULFOXIDE]: the “Growth Rate” value in data set [1] (0 h, replicate number 1) worked out at 0.12; in data set [1] (0 h, replicate number 2), 0.07; in data set [1] (6 h, replicate number 2) it was 0.48; in data set [1] (12 h, replicate number 1) it was 0.83; in data set [1] (12 h, replicate number 2), 0.78; in data set [1] (18 h, replicate number 1) it was 0.88. The “Growth Rate” value came to 0.83 in data set [1] (18 h, replicate number 2); 0.9 in data set [1] (24 h, replicate number 1); 0.69 in data set [1] (24 h, replicate number 2); 0.99 in data set [2] (6 h, replicate number 1); 0.8 in data set [2] (6 h, replicate number 2); 0.83 in data set [2] (12 h, replicate number 2). Also, the “Growth Rate” value in data set [2] (18 h, replicate number 1) is given as 0.87; in data set [3] (0 h, replicate number 2), 0.1; in data set [3] (6 h, replicate number 1), 0.89; in data set [3] (6 h, replicate number 2) it was 0.27; in data set [3] (12 h, replicate number 2) it was 0.44; in data set [3] (18 h, replicate number 2) it was 0.5. In addition, in data set [3] (24 h, replicate number 2), the “Growth Rate” value is 0.44.
In the case of `CN1C(=O)Cc2ccc(-c3ccc(C[C@@H](C#N)NC(=O)[C@@H]4N[C@H]5CC[C@@H]4C5)c(F)c3)cc21`, the “Growth Rate” value in data set [1] (6 h, replicate number 1) is 0.06; in data set [1] (6 h, replicate number 2), 0.52; in data set [1] (12 h, replicate number 1) it was 0.07; in data set [1] (12 h, replicate number 2), 0.61; in data set [1] (18 h, replicate number 1) it was 0.19; in data set [1] (18 h, replicate number 2), 0.73. In addition, the “Growth Rate” value was determined as 0.28 in data set [1] (24 h, replicate number 1); 0.82 in data set [1] (24 h, replicate number 2); 0.38 in data set [2] (6 h, replicate number 1); 0.46 in data set [2] (12 h, replicate number 1); 0.99 in data set [2] (12 h, replicate number 2); 0.42 in data set [2] (18 h, replicate number 1). The “Growth Rate” value in data set [2] (24 h, replicate number 1) worked out at 0.61; in data set [3] (0 h, replicate number 1) it was 0.98; in data set [3] (6 h, replicate number 1), 0.89.
With `CC(C)(O)c1coc(S(=O)(=O)NC(=O)Nc2c3c(cc4c2CCC4)CCC3)c1`, the “Growth Rate” value in data set [1] (0 h, replicate number 1) is recorded as -0.08; in data set [1] (0 h, replicate number 2), 0.34; in data set [2] (0 h, replicate number 2) it was 0.57; in data set [2] (24 h, replicate number 1), 0.99; in data set [3] (0 h, replicate number 1) it was 0.85; in data set [3] (6 h, replicate number 1), 0.92. Moreover, the “Growth Rate” value stood at 0.88 in data set [3] (12 h, replicate number 1); 0.89 in data set [3] (12 h, replicate number 2); 0.99 in data set [3] (18 h, replicate number 2); 0.94 in data set [3] (24 h, replicate number 2).
